Results: patent publication US20140045747A1, “METHODS FOR INCREASING AND MOBILIZING HEMATOPOIETIC STEM CELLS” (Cleveland Biolabs, Inc., priority 2007, published 2014)

Experiments:
[1] = system: hematopoietic stem and progenitor cells in bone marrow; assay: CBLB612 dose dependence of HSC number in mouse bone marrow (Example 6); type: in vivo, C57Bl/6NHsd mice; conditions: average, regimen per group b224: AMD3100 5 mg/kg SC 1 h before euthanasia, G-CSF four daily 0.1 mg/kg SC, 612 1.2 mg/kg SC 72 h
Protocol: (§1) The doses were calculated as intended dose/kg of average weight. The adjustment of a dose was accomplished by adjusting the concentration of an article for injection while keeping the injection volume constant.
(§2) According to Table 9, all groups received a single subcutaneous (SC) injection of 5 mg/kg of AMD3100 one hour before euthanasia. Control group 1 was injected with 5 mg/kg of AMD3100 only. Control group 2 was treated with four daily 0.1 mg/kg SC injections of G-CSF and on the fifth day the mice were injected with AMD3100. Control group 8 consisted of ICR mice and received the same treatment as Control group 2. Study groups 3, 4, 5, and 6 received a single SC injection of CBLB612 at 1.2; 0.4; 0.13; and 0.04 mg/kg doses, respectively, at 72 hours before blood collection. Group 7 received a single SC injection of 1.2 mg/kg CBLB612 at 24 hours before blood collection. Study group 9 was treated with four daily SC injections of 0.1 mg/kg G-CSF, a single SC injection of 1.2 mg/kg CBLB612 at 72 hours before blood collection, and a single SC injection of 5 mg/kg AMD3100 one hour before euthanasia at the fifth day after the first G-CSF injection.

[2] = system: hematopoietic stem and progenitor cells in bone marrow; assay: Kinetics of HSC number after CBLB612, bone marrow of C57Bl mice (Example 7); type: in vivo
Protocol: (§3) The following mobilization of HSC and progenitor cells from the bone marrow to peripheral blood after CBLB612 injection. […] The doses were calculated as intended dose/kg of average weight. The adjustment of a dose was accomplished by adjusting the concentration of an article for injection while keeping the injection volume constant. According to Table 13, with the exception of the PBS control group 8, all groups received a 5 mg/kg dose of AMD3100 one hour before euthanasia. Control group 7 received a 6.5 mg/kg does of AMD3100. Negative control group 8 received a single SC injection of 200 μl PBS one hour before blood collection. Study groups 1-6 received single SC injections of CBLB12 at 2 mg/kg at different time points prior to blood collection. Positive control group 9 received four daily SC injections of 0.1 mg/kg G-CSF.

[3] = system: hematopoietic stem and progenitor cells in peripheral blood; assay: Kinetics of HSC mobilization after CBLB612, peripheral blood of C57Bl mice (Example 7); type: in vivo
Protocol: as §3

[4] = system: hematopoietic stem and progenitor cells in peripheral blood; assay: CBLB612 dose dependence of HSC mobilization, peripheral blood of C57Bl mice (Example 6); type: in vivo; conditions: C57Bl/6NHsd mice, average, regimen per group b224: AMD3100 5 mg/kg SC 1 h before euthanasia, G-CSF four daily 0.1 mg/kg SC, 612 1.2 mg/kg SC 72 h
Protocol: as §1, §2

[5] = system: C57/B6 mice irradiated with 9 Gy; assay: Survival of lethally irradiated mice transfused with PWBC from treated donor mice (Example 2); type: in vivo; conditions: recipients irradiated 9 Gy, transfused with PWBC from donor mice treated with the compound; 5 mice at Day 0
Protocol: Blood transfused from lipopeptide-treated mice is capable of protecting recipient mice from the effects of radiation. […] To control for the effects of CBLB612, a group of mice was injected daily for four consecutive days with 100 μg/kg G-CSF, or with PBS.
Following the last injection, blood was collected from the treated mice by cardiac puncture and combined for each group (i.e., PBS negative controls, G-CSF positive controls, and CBLB612 experimental). Next, peripheral white blood cells (PWBC) were fractionated, and 200 μL of fractionated PWBC were injected into the tail veins of irradiated recipient mice. The amount of transfused PWBC was equivalent to the amount from one mouse.
Mice from the five test groups (i.e., PBS-, G-CSF-, and CBLB612-treated mouse blood transfusions, no transfusion, and bone marrow injection), previously irradiated with 9 Gy (a lethal dose for C57/B6 mice) for 2 h prior to transfusion, were observed and their survival rate assessed following transfusion.

[6] = AMD3100 5 mg/kg SC 1 h before collection
[7] = AMD3100 + 30%: 6.5 mg/kg SC 1 h before collection

Molecule: c1cc(CN2CCCNCCNCCCNCC2)ccc1CN1CCCNCCNCCCNCC1 [AMD3100]
- 7AAD−/LIN− [1]: 2.39 ×10^6
- KSL [1]: 1.37 ×10^4
- KSL/CD34+ [1]: 1.25 ×10^4
- KSL/CD34− [1]: 1.24 ×10^3
- LIN−/kit−/sca1+ [1]: 15.74 ×10^4
- LIN−/sca1−/kit+ [1]: 13.26 ×10^4
- total number of cells [1]: 4.47 10^7
- 7AAD−/LIN− (average number) [2, 6]: 2.44 ×10^6
- KSL (average number) [2, 6]: 17184
- KSL/CD34+ (average number) [2, 6]: 14743
- KSL/CD34− (average number) [2, 6]: 2689
- LIN−/kit−/sca1+ (average number) [2, 6]: 206061
- LIN−/sca1−/kit+ (average number) [2, 6]: 163895
- total number of cells (average) [2, 6]: 4.88 10^7
- 7AAD−/LIN− (average number) [2, 7]: 2.26 ×10^6
- KSL (average number) [2, 7]: 41791
- KSL/CD34+ (average number) [2, 7]: 40873
- KSL/CD34− (average number) [2, 7]: 1084
- LIN−/kit−/sca1+ (average number) [2, 7]: 148328
- LIN−/sca1−/kit+ (average number) [2, 7]: 281722
- total number of cells (average) [2, 7]: 3.65 10^7
- 7AAD−/LIN− (average number) [3, 6]: 421616
- KSL (average number) [3, 6]: 360
- KSL/CD34+ (average number) [3, 6]: 308
- KSL/CD34− (average number) [3, 6]: 56
- LIN−/kit−/sca1+ (average number) [3, 6]: 23142
- LIN−/sca1−/kit+ (average number) [3, 6]: 1932
- total number of WBC (average) [3, 6]: 962.40 10^4/ml
- 7AAD−/LIN− (average number) [3, 7]: 302644
- KSL (average number) [3, 7]: 907
- KSL/CD34+ (average number) [3, 7]: 856
- KSL/CD34− (average number) [3, 7]: 63
- LIN−/kit−/sca1+ (average number) [3, 7]: 30938
- LIN−/sca1−/kit+ (average number) [3, 7]: 1816
- total number of WBC (average) [3, 7]: 1111.05 10^4/ml
- 7AAD−/LIN− [4]: 254725
- KSL [4]: 238
- KSL/CD34+ [4]: 174
- KSL/CD34− [4]: 72
- LIN−/kit−/sca1+ [4]: 40971
- LIN−/sca1−/kit+ [4]: 1104
- total number of WBC [4]: 629.95 10^4/ml

B1: G-CSF: granulocyte-colony stimulating factor, a cytokine; positive control (protein, UniProt P09919 31-207, looked up)
Granulocyte …: TPLGPASSLPQSFLLKCLEQVRKIQGDGAALQEKLVSECATYKLCHPEELVLLGHSLGIPWAPLSSCPSQALQLAGCLSQLHSGLFLYQGLLQALEGISPELGPTLDTLQLDVADFATTIWQQMEELGMAPALQPTQGAMPAFASAFQRRAGGVLVASHLQSFLEVSYRVLRHLAQP
- Number of Surviving Mice, Day 21 [5]: 5
- Number of Surviving Mice, Day 22 [5]: 5
- Number of Surviving Mice, Day 23 [5]: 5
- Number of Surviving Mice, Day 24 [5]: 5
